Like-named read-outs stand apart in the source and are kept apart here.
What was measured:
Assay in all cases: Post-emergence efficacy, Method A
Type in all cases: in vivo
[1] = tested on: Chenopodium album (CHEAL); settings: read-out: Control of weed species after post-emergence application, CHEAL
[2] = tested on: Amaranthus palmeri (AMAPA); settings: read-out: Control of weed species after post-emergence application, AMAPA
Lolium perenne (LOLPE) = settings: read-out: Control of weed species after post-emergence application, LOLPE
[3] = tested on: Ipomoea hederacea (IPOHE); settings: read-out: Control of weed species after post-emergence application, IPOHE
Setaria faberi (SETFA) = settings: read-out: Control of weed species after post-emergence application, SETFA
Eleusine indica (ELEIN) = settings: read-out: Control of weed species after post-emergence application, ELEIN
[4] = tested on: Digitaria sanguinalis (DIGSA); settings: read-out: Control of weed species after post-emergence application, DIGSA
[5] = tested on: Euphorbia heterophylla (EPHHL); settings: read-out: Control of weed species after post-emergence application, EPHHL
[6] = tested on: Echinochloa crus-galli (ECHCG); settings: read-out: Control of weed species after post-emergence application, ECHCG
[7] = 1000 g/Ha, 100=total damage to plant, 0=no damage, evaluated after 7 and 14 days
[8] = 500 g/Ha, 100=total damage to plant, 0=no damage, evaluated after 7 and 14 days

| Structure (SMILES) | pest or weed control at 500 g/ha [1, 8] | pest or weed control at 500 g/ha [2, 8] | pest or weed control at 500 g/ha (Lolium perenne (LOLPE); [8]) | pest or weed control at 500 g/ha [3, 8] | pest or weed control at 500 g/ha (Setaria faberi (SETFA); [8]) | pest or weed control at 500 g/ha (Eleusine indica (ELEIN); [8]) | pest or weed control at 500 g/ha [4, 8] | pest or weed control at 500 g/ha [5, 8] | pest or weed control at 500 g/ha [6, 8] | further results |
| --- | --- | --- | --- | --- | --- | --- | --- | --- | --- | --- |
| O=S(=O)([O-])CCC[n+]1ccc(-c2cnsn2)cc1 [Compound A12] | – | – | – | – | – | – | – | – | – | pest or weed control at 1000 g/ha [1, 7]: 0%; pest or weed control at 1000 g/ha [2, 7]: 0%; pest or weed control at 1000 g/ha (Lolium perenne (LOLPE); [7]): 10%; pest or weed control at 1000 g/ha [3, 7]: 0%; pest or weed control at 1000 g/ha (Setaria faberi (SETFA); [7]): 0%; pest or weed control at 1000 g/ha (Eleusine indica (ELEIN); [7]): 20%; pest or weed control at 1000 g/ha [4, 7]: 20%; pest or weed control at 1000 g/ha [5, 7]: 20%; pest or weed control at 1000 g/ha [6, 7]: 0% |
| O=C(O)C[n+]1ccc(-c2ncno2)cc1 [Compound A13] | 50% | 100% | 10% | 30% | 70% | 50% | 60% | 70% | 50% | – |
| O=C(O)CC[n+]1ccc(-c2ncno2)cc1 [Compound A14] | 70% | 100% | 10% | 20% | 60% | 40% | 50% | 30% | 50% | – |
| COC(=O)C[n+]1ccc(-c2nnco2)cc1 [Compound A16] | 0% | 0% | 0% | 20% | 30% | 10% | 40% | 20% | 20% | – |
| O=S(=O)([O-])CCC[n+]1ccc(-c2nnco2)cc1 [Compound A17] | 70% | 70% | 0% | 20% | 40% | 10% | 40% | 50% | 30% | – |
| O=S(=O)([O-])CCC[n+]1ccc(-c2cnon2)cc1 [Compound A18] | 50% | 100% | 10% | 20% | 40% | 30% | 30% | 50% | 50% | – |
| O=S(=O)([O-])CC[n+]1ccc(-c2cnns2)cc1 [Compound A19] | 50% | 100% | 30% | 50% | 40% | 30% | 30% | 50% | 40% | – |
| O=C(O)C[n+]1ccc(-c2nccs2)cc1 [Compound A24] | 40% | 0% | 0% | 20% | 0% | 0% | 10% | 40% | 0% | – |
| O=C(O)CC[n+]1ccc(-c2nccs2)cc1 [Compound A25] | 10% | 0% | 0% | 10% | 0% | 10% | 10% | 0% | 0% | – |
| Cn1nnnc1-c1cc[n+](CCS(=O)(=O)[O-])cc1 [Compound A26] | 10% | 0% | 10% | 10% | 10% | 10% | 20% | 20% | 10% | – |
| Cn1nnc(-c2cc[n+](CCS(=O)(=O)[O-])cc2)n1 [Compound A27] | 10% | 10% | 0% | 10% | 0% | 0% | 0% | 20% | 0% | – |
| Cn1nnnc1-c1cc[n+](CC(=O)O)cc1 [Compound A33] | 40% | 90% | 0% | 0% | 0% | 20% | 20% | 40% | 0% | – |
| Cn1nnc(-c2cc[n+](CC(=O)O)cc2)n1 [Compound A34] | 0% | 70% | 0% | 0% | 0% | 0% | 0% | 0% | 0% | – |
| Cc1nnc(-c2cc[n+](CCCS(=O)(=O)[O-])cc2)o1 [Compound A36] | 60% | 70% | 0% | 30% | 10% | 10% | 30% | 60% | 10% | – |
| O=S(=O)([O-])CC[n+]1ccc(-c2nc(C(F)(F)F)co2)cc1 [Compound A46] | 0% | 30% | 0% | 0% | 0% | 0% | 0% | 0% | 0% | – |
| CCOP(C)(=O)C[n+]1ccc(-c2ncns2)cc1 (stereo not drawn) [Compound A47, 5-[1-[[ethoxy(methyl)phosphoryl]methyl]pyridin-1-ium-4-yl]-1,2,4-thiadiazole trifluoromethanesulfonate] | – | – | – | – | – | – | – | – | – | pest or weed control at 500 g/ha [1]: 60%; pest or weed control at 500 g/ha [2]: 60%; pest or weed control at 500 g/ha (Lolium perenne (LOLPE)): 0%; pest or weed control at 500 g/ha [3]: 10%; pest or weed control at 500 g/ha (Setaria faberi (SETFA)): 10%; pest or weed control at 500 g/ha (Eleusine indica (ELEIN)): 10%; pest or weed control at 500 g/ha [4]: 10%; pest or weed control at 500 g/ha [5]: 10%; pest or weed control at 500 g/ha [6]: 10% |

Reference: patent US20220104493A1, “HERBICIDAL COMPOUNDS” (SYNGENTA CROP PROTECTION AG, priority 2019, published 2022)
